US20070128217A1 (priority 2003, published 2007)

Key:
[1] = tested on: control sera (pooled serum of ten healthy LUMC hospital workers; commercial negative donor pooled serum from the Dutch bloodbank); type: binding, human; set-up: Binding of Control serum LUMC to linear peptides / Binding of Control serum Blood-bank to linear peptides / Binding of Control serum LUMC to looped peptides / Binding of Control Serum Blood-Bank to Looped peptides / Binding of Control serum LUMC to linear peptides of the protein M of SARS-CoV Urbani / Binding of Control serum Blood-bank to linear peptides of the protein M of SARS-CoV Urbani / Binding of Control serum LUMC to looped peptides of the protein M of SARS-CoV Urbani / Binding of Control Serum Blood-Bank to Looped peptides of the protein M of SARS-CoV Urbani: unit not given here
[2] = tested on: rabbit serum obtained by immunizing a rabbit with the SARS-CoV strain Frankfurt 1; type: binding; set-up: Binding of a rabbit serum to linear peptides / Binding of a rabbit serum to looped peptides / Rabbit serum linear peptides / Rabbit serum looped peptides / Binding of a rabbit serum to linear peptides of protein N of SARS-CoV Urbani (Rabbit serum linear peptides) / Binding of a rabbit serum to looped/cyclic peptides of protein N of SARS-CoV Urbani (Rabbit serum looped peptides): unit not given here

Row | Sequence | Binding of Control Serum Blood-Bank to Looped peptides [1] | Binding of Control serum Blood-bank to linear peptides [1] | Binding of Control serum LUMC to linear peptides [1] | Binding of Control serum LUMC to looped peptides [1] | Binding of a rabbit serum to linear peptides [2] | Binding of a rabbit serum to looped peptides [2] | Rabbit serum linear peptides [2] | Rabbit serum looped peptides [2] | Binding of Control Serum Blood-Bank to Looped peptides of the protein X3 of SARS-CoV Urbani [1] | Binding of Control serum Blood-bank to linear peptides of the protein X3 of SARS-CoV Urbani [1] | Binding of Control serum LUMC to linear peptides of the protein X3 of SARS-CoV Urbani [1] | Binding of Control serum LUMC to looped peptides of the protein X3 of SARS-CoV Urbani [1] | Binding of Control Serum Blood-Bank to Looped peptides of the protein M of SARS-CoV Urbani [1] | Binding of Control serum Blood-bank to linear peptides of the protein M of SARS-CoV Urbani [1] | Binding of Control serum LUMC to linear peptides of the protein M of SARS-CoV Urbani [1] | Binding of Control serum LUMC to looped peptides of the protein M of SARS-CoV Urbani [1] | Recognition of the peptide by the rabbit serum [2]
1 | KLVVILRIGTQVLKT | 0.7 | 0.8 | 0.4 | 0.6 | 0.5 | 0.5 |  |  |  |  |  |  |  |  |  |  | 
2 | LADNKFALTCTSTHF | 0.7 | 0.7 | 0.7 | 0.7 |  |  | 0.5 | 0.5 |  |  |  |  |  |  |  |  | 
3 | LFKPLTKKNYSELDD |  |  |  |  |  |  | 0.3 | 0.4 | 0.8 | 0.7 | 0.6 | 0.9 |  |  |  |  | 
4 | LGASQRVGTDSGFAA |  |  |  |  |  |  | 0.3 | 0.1 |  |  |  |  | 0.6 | 0.9 | 0.5 | 0.8 | 
5 | LGSITAQPVKIDNAS | 0.4 | 0.4 | 0.5 | 0.4 | 0.3 | 0.4 |  |  |  |  |  |  |  |  |  |  | 
6 | LKEDYQIGGYSEDRH | 0.4 | 0.5 | 0.5 | 0.5 | 0.1 | 0.7 |  |  |  |  |  |  |  |  |  |  | 
7 | LNTDHAGSNDNIALL |  |  |  |  |  |  | 0.0 | 0.3 |  |  |  |  | 0.7 | 0.6 | 0.7 | 0.9 | 
8 | LRIGTQVLKTMSLYM | 0.7 | 0.6 | 0.4 | 0.7 | 0.4 | 0.4 |  |  |  |  |  |  |  |  |  |  | 
9 | LRMAGHPLGRCDIKD |  |  |  |  |  |  | 0.3 | 0.1 |  |  |  |  | 0.8 | 0.7 | 0.5 | 0.8 | 
10 | LSYYKLGASQRVGTD |  |  |  |  |  |  | 0.2 | 0.3 |  |  |  |  | 0.7 | 0.8 | 0.8 | 0.7 | 
11 | LVKDPPNVQIHTIDG | 0.6 | 0.4 | 0.4 | 0.7 | 0.1 | 0.5 |  |  |  |  |  |  |  |  |  |  | 
12 | LVKPTVYVYSRVKNL | 0.7 | 0.8 | 0.4 | 0.7 | 0.6 | 0.9 |  |  |  |  |  |  |  |  |  |  | 
13 | MADNGTITVEELKQL |  |  |  |  |  |  |  |  |  |  |  |  | 0.4 | 0.5 | 0.6 | 0.6 | recognized
14 | MAGHPLGRCDIKDLP |  |  |  |  |  |  | 0.4 | 0.3 |  |  |  |  | 0.5 | 0.7 | 0.5 | 0.5 | 
15 | MRTFRIAIWNLDVII |  |  |  |  |  |  | 0.3 | 0.4 | 0.8 | 0.7 | 0.6 | 0.8 |  |  |  |  | 
16 | NCQDPAGGALIARCW | 0.8 | 0.6 | 0.3 | 0.6 |  |  | 0.5 | 0.5 |  |  |  |  |  |  |  |  | 
17 | NIVNVSLVKPTVYVY | 0.6 | 0.6 | 0.4 | 0.8 | 0.5 | 0.6 |  |  |  |  |  |  |  |  |  |  | 
18 | NKLVKDPPNVQIHTI | 0.8 | 1.0 | 0.9 | 0.9 | 0.1 | 0.6 |  |  |  |  |  |  |  |  |  |  | 
19 | NPAMDPIYDEPTTTT | 0.4 | 0.4 | 0.3 | 0.4 | 0.1 | 0.3 |  |  |  |  |  |  |  |  |  |  | 
20 | NTDHAGSNDNIALLV |  |  |  |  |  |  | 0.4 | 0.4 |  |  |  |  | 1.0 | 0.8 | 0.5 | 0.9 | 
21 | NVTINCQDPAGGALI | 0.7 | 0.8 | 0.6 | 0.7 |  |  | 0.6 | 0.5 |  |  |  |  |  |  |  |  | 
22 | NWVTGGIAIAMACIV |  |  |  |  |  |  | 0.2 | 0.3 |  |  |  |  | 0.6 | 0.7 | 0.8 | 0.9 | 
23 | NYDYCIPYNSVTDTI | 0.6 | 0.6 | 0.6 | 0.7 | 0.1 | 0.5 |  |  |  |  |  |  |  |  |  |  | 
24 | NYFVCWHTHNYDYCI | 0.6 | 0.6 | 0.6 | 0.6 | 0.1 | 0.5 |  |  |  |  |  |  |  |  |  |  | 
25 | PAMDPIYDEPTTTTS | 0.5 | 0.4 | 0.4 | 0.4 | 0.1 | 0.4 |  |  |  |  |  |  |  |  |  |  | 
26 | PKLKEDYQIGGYSED | 0.5 | 0.4 | 0.4 | 0.7 | 0.1 | 0.6 |  |  |  |  |  |  |  |  |  |  | 
27 | PLGRCDIKDLPKEIT |  |  |  |  |  |  | 0.3 | 0.4 |  |  |  |  | 0.9 | 0.6 | 0.4 | 0.8 | 
28 | PNVTINCQDPAGGAL | 0.4 | 1.0 | 0.7 | 0.4 |  |  | 0.6 | 0.2 |  |  |  |  |  |  |  |  | 
29 | PVKIDNASPASTVHA | 0.7 | 0.7 | 0.5 | 0.9 | 0.1 | 0.4 |  |  |  |  |  |  |  |  |  |  | 
30 | QECVRGTTVLLKEPC | 0.9 | 0.9 | 1.0 | 0.8 |  |  | 0.6 | 0.5 |  |  |  |  |  |  |  |  | 
